17 molecules from US12187742B2 (XRAD Therapeutics, Inc., priority 2018, dated 2025) can be followed below.

Counter-ions that a name gives are not always drawn. Bounds are passed on as bounds.

Test [1] addresses DNA-PK (Homo sapiens (Human), UniProt P78527). Nature of the test: DNA-PK Enzyme-Linked Immunosorbent Assay (phosphorylation of GST-p53 (1-101) peptide). Format: biochemical. The settings on record: ELISA. Put shortly: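 Inhibition measured by 450 nm absorbance after HRP/TMB detection of phospho-Ser15 on immobilized GST-p53 (1-101). The kinase reaction used 0.1 μg/mL DNA-PK and 20 μM ATP, 1 h at 25 °C. Ten 3-fold compound dilutions, top final concentration 100 nM.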
In general terms: In an ELISA, binding on a coated surface is turned into a signal by an enzyme label.

Test [2] addresses ATM (Homo sapiens (Human), UniProt Q13315). Nature of the test: ATM in Cell Western Assay (pKAP1 in etoposide-treated MCF-7 cells). The format is cell-based. In outline: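 After paraformaldehyde fixation and Triton X-100 permeabilization, immunostained plates were read by infrared scanning (ODYSSEY CLx). Compound was given as 10 doses, 3-fold dilutions from a 1 μM final top concentration.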

Setting [3] is: MCF-7 cells, etoposide 100 μM, 1 hr, pKAP1 readout.
The mark [4] stands for this setting: pKAP1 in etoposide-treated MCF-7 cells.

ATM, sequence (Q13315 whole entry): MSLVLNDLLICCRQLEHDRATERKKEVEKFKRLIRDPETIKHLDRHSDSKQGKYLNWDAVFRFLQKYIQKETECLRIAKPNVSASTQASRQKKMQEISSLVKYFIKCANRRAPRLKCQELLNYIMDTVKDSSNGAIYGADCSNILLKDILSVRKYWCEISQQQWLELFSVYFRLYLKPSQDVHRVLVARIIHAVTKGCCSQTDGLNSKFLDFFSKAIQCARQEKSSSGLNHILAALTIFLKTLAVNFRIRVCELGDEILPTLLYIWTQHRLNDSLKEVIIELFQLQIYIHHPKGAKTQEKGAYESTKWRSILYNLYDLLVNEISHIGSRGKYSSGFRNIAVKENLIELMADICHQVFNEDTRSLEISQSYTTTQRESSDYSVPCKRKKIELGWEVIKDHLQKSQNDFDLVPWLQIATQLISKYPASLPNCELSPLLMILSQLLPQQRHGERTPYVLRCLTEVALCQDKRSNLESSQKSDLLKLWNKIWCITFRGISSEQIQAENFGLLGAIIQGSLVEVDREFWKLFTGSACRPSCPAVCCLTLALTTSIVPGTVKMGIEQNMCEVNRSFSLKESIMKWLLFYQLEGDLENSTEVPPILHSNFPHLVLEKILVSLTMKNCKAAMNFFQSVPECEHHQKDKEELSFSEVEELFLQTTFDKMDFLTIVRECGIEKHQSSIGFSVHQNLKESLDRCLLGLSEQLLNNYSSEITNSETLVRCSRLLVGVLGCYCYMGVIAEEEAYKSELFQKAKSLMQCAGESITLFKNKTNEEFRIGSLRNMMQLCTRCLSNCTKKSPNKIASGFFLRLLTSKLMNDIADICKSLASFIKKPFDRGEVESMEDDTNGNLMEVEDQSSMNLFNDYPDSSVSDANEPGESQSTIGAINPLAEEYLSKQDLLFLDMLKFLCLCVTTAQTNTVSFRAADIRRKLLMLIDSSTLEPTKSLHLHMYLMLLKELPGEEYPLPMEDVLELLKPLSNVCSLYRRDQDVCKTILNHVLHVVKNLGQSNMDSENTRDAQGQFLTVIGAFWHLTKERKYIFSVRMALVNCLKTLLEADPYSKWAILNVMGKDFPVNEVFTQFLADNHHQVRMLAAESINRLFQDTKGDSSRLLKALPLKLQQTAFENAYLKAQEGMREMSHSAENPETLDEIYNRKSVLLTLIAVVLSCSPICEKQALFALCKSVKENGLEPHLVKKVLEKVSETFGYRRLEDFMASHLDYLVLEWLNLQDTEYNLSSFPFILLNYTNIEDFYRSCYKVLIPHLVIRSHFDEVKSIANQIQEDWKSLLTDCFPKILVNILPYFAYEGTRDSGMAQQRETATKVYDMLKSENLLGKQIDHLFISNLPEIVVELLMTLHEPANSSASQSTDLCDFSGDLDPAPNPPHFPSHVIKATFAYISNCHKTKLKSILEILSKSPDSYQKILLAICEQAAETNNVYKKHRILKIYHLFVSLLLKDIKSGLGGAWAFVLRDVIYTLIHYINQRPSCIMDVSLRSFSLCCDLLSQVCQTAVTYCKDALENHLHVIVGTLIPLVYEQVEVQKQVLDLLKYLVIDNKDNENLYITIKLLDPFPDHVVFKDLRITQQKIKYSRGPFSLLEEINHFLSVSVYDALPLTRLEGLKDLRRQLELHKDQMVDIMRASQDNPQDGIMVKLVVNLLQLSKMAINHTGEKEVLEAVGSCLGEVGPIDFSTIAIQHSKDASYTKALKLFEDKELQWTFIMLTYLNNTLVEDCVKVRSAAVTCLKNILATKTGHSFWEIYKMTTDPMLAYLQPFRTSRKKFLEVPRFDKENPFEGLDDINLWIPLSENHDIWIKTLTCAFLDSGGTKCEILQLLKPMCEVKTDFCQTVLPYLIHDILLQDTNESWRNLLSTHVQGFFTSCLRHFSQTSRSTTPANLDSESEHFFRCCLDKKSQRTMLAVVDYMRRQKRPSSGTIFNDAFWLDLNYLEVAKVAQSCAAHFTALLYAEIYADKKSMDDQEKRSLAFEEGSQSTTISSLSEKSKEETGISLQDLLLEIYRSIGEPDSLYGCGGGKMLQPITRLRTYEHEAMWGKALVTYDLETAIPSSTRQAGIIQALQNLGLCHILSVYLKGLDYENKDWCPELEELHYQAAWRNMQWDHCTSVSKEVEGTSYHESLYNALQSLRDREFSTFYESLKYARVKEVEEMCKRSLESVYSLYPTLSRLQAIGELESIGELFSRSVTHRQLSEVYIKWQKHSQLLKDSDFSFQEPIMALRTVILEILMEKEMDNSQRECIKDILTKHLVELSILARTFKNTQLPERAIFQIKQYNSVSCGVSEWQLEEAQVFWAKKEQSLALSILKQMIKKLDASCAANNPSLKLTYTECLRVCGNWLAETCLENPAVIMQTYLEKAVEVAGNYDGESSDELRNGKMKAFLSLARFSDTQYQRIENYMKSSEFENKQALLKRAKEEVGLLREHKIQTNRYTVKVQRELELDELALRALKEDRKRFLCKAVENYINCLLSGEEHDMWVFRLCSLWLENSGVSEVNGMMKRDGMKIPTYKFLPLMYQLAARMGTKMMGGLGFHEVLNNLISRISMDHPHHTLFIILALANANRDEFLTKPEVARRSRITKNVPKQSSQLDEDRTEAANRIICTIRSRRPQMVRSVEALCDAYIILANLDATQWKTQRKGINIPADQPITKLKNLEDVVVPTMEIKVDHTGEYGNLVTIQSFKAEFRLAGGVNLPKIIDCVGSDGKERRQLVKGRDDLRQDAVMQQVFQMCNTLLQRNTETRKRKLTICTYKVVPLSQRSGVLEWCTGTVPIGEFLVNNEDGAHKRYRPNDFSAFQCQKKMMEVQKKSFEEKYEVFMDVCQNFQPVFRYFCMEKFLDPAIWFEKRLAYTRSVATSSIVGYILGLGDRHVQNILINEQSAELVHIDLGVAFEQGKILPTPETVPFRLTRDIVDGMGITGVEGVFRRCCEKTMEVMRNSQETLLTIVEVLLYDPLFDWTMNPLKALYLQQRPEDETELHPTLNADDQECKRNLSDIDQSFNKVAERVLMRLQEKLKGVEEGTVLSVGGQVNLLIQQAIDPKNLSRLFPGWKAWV

What is called IC50 is the concentration needed to halve the response being measured. With `COc1ncc(-c2ccc3ncc4c(c3c2)C2(CC2)C(=O)N4C)cc1NS(=O)(=O)c1ccc([N+](=O)[O-])cc1` [Example 12, N-(2-Methoxy-5-(3′-methyl-2′-oxo-2′,3′-dihydrospiro [cyclopropane-1,1′-pyrrolo[2,3-c]quinolin]-8′-yl)pyridin-3-yl)-4-nitrobenzenesulfonamide], the IC50 in test [1] (ATP 20 μM) is less than 0.5 nM; in test [2] (setting [3]), 1 to 100 nM.
For the molecule `CN1CCN(CCCOc2ncc(-c3ccc4ncc5c(c4c3)C3(CCC3)C(=O)N5C)cc2NS(C)(=O)=O)CC1` [Example 299, N-(5-(3′-Methyl-2′-oxo-2′,3′-dihydrospiro[cyclobutane-1,1′-pyrrolo[2,3-c]quinolin]-8′-yl)-2-(3-(4-methylpiperazin-1-yl)propoxy)pyridin-3-yl)methanesulfonamide], the IC50 in test [1] (ATP 20 μM) and in test [2] (setting [3]) was 1 to 100 nM each time.
In the case of `CN1C(=O)C2(CCC2)c2c1cnc1ccc(-c3cnc(N4CCC(N(C)C)CC4)c(NS(=O)(=O)N(C)C)c3)cc21` [Example 226, 8′-{6-[4-(Dimethylamino)piperidin-1-yl]-5-[(dimethylsulfamoyl)amino]pyridin-3-yl}-3′-methyl-2′,3′-dihydrospiro[cyclobutane-1,1′-pyrrolo[2,3-c]quinoline]-2′-one], the IC50 in test [1] (ATP 20 μM) is less than 0.5 nM; in test [2] (setting [3]), 0.5 to 1 nM.
`CN1C(=O)C2(CCC2)c2c1cnc1ccc(-c3cnc(OCCCN4CCC(F)C4)c(NS(C)(=O)=O)c3)cc21` (stereo not shown) [Example 279, N-(2-(3-(3-Fluoropyrrolidin-1-yl)propoxy)-5-(3′-methyl-2′-oxo-2′,3′-dihydrospiro[cyclobutane-1,1′-pyrrolo[2,3-c]quinolin]-8′-yl)pyridin-3-yl)methanesulfonamide]: the IC50 fell in the range of 0.5 to 1 nM in test [1] (ATP 20 μM) and 1 to 100 nM in test [2] (setting [3]).
As to `CC(C)NCCOc1ncc(-c2ccc3ncc4c(c3c2)C2(CCC2)C(=O)N4C)cc1NS(C)(=O)=O` [Example 281, N-(2-(2-(Isopropylamino)ethoxy)-5-(3′-methyl-2′-oxo-2′,3′-dihydrospiro [cyclobutane-1,1′-pyrrolo[2,3-c]quinolin]-8′-yl)pyridin-3-yl)methanesulfonamide], the figures for the IC50 in test [1] (ATP 20 μM) and in test [2] (setting [3]) were 0.5 to 1 nM and 1 to 100 nM, respectively.
As for `COc1ncc(-c2ccc3ncc4c(c3c2)C2(CC2)C(=O)N4CC#N)cc1NS(=O)(=O)c1ccccc1` [Example 21, N-(5-(3′-(Cyanomethyl)-2′-oxo-2′,3′-dihydrospiro[cyclopropane-1,1′-pyrrolo[2,3-c]quinolin]-8′-yl)-2-methoxypyridin-3-yl)benzenesulfonamide], the 50% inhibitory concentration (IC50) is less than 0.5 nM in test [1] (ATP 20 μM) and 1 to 100 nM in test [2] (setting [3]).
Turning to `CN(C)c1ncc(-c2ccc3ncc4c(c3c2)C2(CCC2)C(=O)N4C)cc1NS(=O)(=O)c1ccccc1` [Example 10, N-(2-(Dimethylamino)-5-(3′-methyl-2′-oxo-2′,3′-dihydrospiro[cyclobutane-1,1′-pyrrolo[2,3-c]quinolin]-8′-yl)pyridin-3-yl)benzenesulfonamide], the IC50 in test [1] (ATP 20 μM) is less than 0.5 nM; in test [2] (setting [3]), 1 to 100 nM.
Consider `COc1cc([C@H]2C[C@@]3(C2)C(=O)N(C)c2cnc4cc(F)c(-c5cnc(OCCNC(C)C)c(NS(C)(=O)=O)c5)cc4c23)ccn1` [Example 433, trans-N-(5-(7′-Fluoro-3-(2-methoxypyridin-4-yl)-3′-methyl-2′-oxo-2′,3′-dihydrospiro[cyclobutane-1,1′-pyrrolo[2,3-c]quinolin]-8′-yl)-2-(2-(isopropylamino)ethoxy)pyridin-3-yl)methanesulfonamide], for which the results for the IC50 in test [1] (20 μM ATP) and in test [2] (setting [4]) were 1 to 100 nM and greater than 100 nM, respectively.
As for `CN(C)CCCOc1ncc(-c2ccc3ncc4c(c3c2)C2(CCC2)C(=O)N4C)cc1NS(=O)(=O)c1ccccn1` [Example 148, N-(2-(3-(Dimethylamino)propoxy)-5-(3′-methyl-2-oxo-2′,3′-dihydrospiro[cyclobulane-1,1′-pyrrolo[2,3-c]quinolin]-8′-yl)pyridin-3-yl)pyridine-2-sulfonamide hydrochloride], the IC50 in test [1] (ATP 20 μM) and in test [2] (setting [3]) was 1 to 100 nM in each case.
For `CN(C)CCCOc1ncc(-c2ccc3ncc4c(c3c2)C2(CN(C)C2)C(=O)N4C)cc1NS(C)(=O)=O` [Example 478, N-(5-(1,3′-Dimethyl-2′-oxo-2′,3′-dihydrospiro[azetidine-3,1′-pyrrolo[2,3-c]quinolin]-8′-yl)-2-(3-(dimethylamino)propoxy)pyridin-3-yl)methanesulfonamide], the IC50 in test [1] (20 μM ATP) and in test [2] (setting [4]) was 1 to 100 nM in each case.
`CN1C(=O)C2(CCC2)c2c1cnc1ccc(-c3cnc(OCC(O)CN4CCCCC4)c(NS(C)(=O)=O)c3)cc21` (stereo not shown) [Example 287, N-(2-(2-Hydroxy-3-(piperidin-1-yl)propoxy)-5-(3′-methyl-2′-oxo-2′,3′-dihydrospiro[cyclobutane-1,1′-pyrrolo[2,3-c]quinolin]-8′-yl)pyridin-3-yl)methanesulfonamide]: the results for the IC50 in test [1] (ATP 20 μM) and in test [2] (setting [3]) were less than 0.5 nM and 1 to 100 nM, respectively.
For the molecule `Cc1cc(-c2ccc3ncc4c(c3c2)C2(CC2)C(=O)N4C)cnc1OCCCN(C)C` [Example 57, 8′-(6-(3-(Dimethylamino)propoxy)-5-methylpyridin-3-yl)-3′-methylspiro[cyclopropane-1,1′-pyrrolo[2,3-c]quinolin]-2′(3′-H)-one], the IC50 in test [1] (ATP 20 μM) and in test [2] (setting [3]) was 1 to 100 nM each time.
Regarding `CN(C)CCCOc1ncc(-c2ccc3ncc4c(c3c2)C2(CC2)C(=O)N4C)cc1OCc1ccccc1` [Example 59, 8′-(5-(Benzyloxy)-6-(3-(dimethylamino)propoxy)pyridin-3-yl)-3methylspiro [cycloproane-1,1′-pyrrolo [2,3-c]quinolin]-2′(3′-)-one], the half-inhibitory concentration (IC50) in test [1] (ATP 20 μM) and in test [2] (setting [3]) was 1 to 100 nM in each case.
For `CN1CCN(c2ncc(-c3ccc4ncc5c(c4c3)C3(CCC3)C(=O)N5C)cc2NS(C)(=O)=O)CC1` [Example 229, N-(5-(3′-Methyl-2′-oxo-2′,3′-dihydrospiro[cyclobutane-1,1′-pyrrolo[2,3-c]quinolin]-8′-yl)-2-(4-methylpiperazin-1-yl)pyridin-3-yl)methanesulfonamide], the values for the IC50 in test [1] (ATP 20 μM) and in test [2] (setting [3]) were less than 0.5 nM and 0.5 to 1 nM, respectively.
Take `CCNC1CN(c2ncc(-c3cc4c5c(cnc4cc3F)N(C)C(=O)C53CCC3)cc2NS(C)(=O)=O)C1` [Example 331, N-(2-(3-(Ethylamino)azetidin-1-yl)-5-(7′-fluoro-3′-methyl-2′-oxo-2′,3′-dihydrospiro [cyclobutane-1,1′-pyrrolo [2,3-c]quinolin]-8′-yl)pyridin-3-yl)methanesulfonamide]: the IC50 in test [1] (ATP 20 μM) fell in the range of 0.5 to 1 nM; in test [2] (setting [3]), 1 to 100 nM.
With `CC(C)NCCOc1ncc(-c2cc3c(cc2F)ncc2c3[C@]3(C[C@H](COC(C)C)C3)C(=O)N2C)cc1NS(=O)(=O)C(C)C` [Example 412, cis-N-(5-(7′-Fluoro-3-(isopropoxymethyl)-3′-methyl-2′-oxo-2′,3′-dihydrospiro[cyclobutane-1,1′-pyrrolo[2,3-c]quinolin]-8′-yl)-2-(2-(isopropylamino)ethoxy)pyridin-3-yl)propane-2-sulfonamide], the IC50 in test [1] (20 μM ATP) and in test [2] (setting [4]) was 1 to 100 nM each time.
Take `CC(C)NCCOc1ncc(-c2cc3c4c(cnc3cc2F)N(C)C(=O)C42CC(C)(C)C2)cc1NS(C)(=O)=O` [Example 446, N-(5-(7′-Fluoro-3,3,3′-trimethyl-2′-oxo-2′,3′-dihydrospiro[cyclobutane-1,1′-pyrrolo[2,3-c]quinolin]-8′-yl)-2-(2-(isopropylamino)ethoxy)pyridin-3-yl)methanesulfonamide]: the half-inhibitory concentration (IC50) in test [1] (20 μM ATP) was less than 0.5 nM; in test [2] (setting [4]) it was 1 to 100 nM.
